The conditions of the series: for aqueous solubility: pH 6.8.

In brackets after ≈: the same amount, converted by molar mass.

A word on the aqueous solubility: it is how much of the substance goes into solution per volume. The low end stands for a poorly soluble substance, the high end for a readily soluble substance.

Compound `CN(C)c1ccnc(C(=O)Nc2ccnn2-c2ccc(C#N)cc2)c1` gave an intrinsic clearance, human liver microsomes of 75.2 mL/min/kg and an intrinsic clearance, rat liver microsomes of 446 mL/min/kg.

On to `COc1ccc2c(c1)C(=O)N(c1ccccc1OC)C(=O)C2`, for which the aqueous solubility turned out to be 40.3 µg/mL (≈ 135 µM).

Compound `Nc1nn(C(=O)Cc2ccc(F)cc2)c2cccc(F)c12` came in with an intrinsic clearance, human liver microsomes of 16.7 mL/min/kg and an intrinsic clearance, rat liver microsomes of 62.9 mL/min/kg.

As to `O=c1c2cc(OCc3ccc(Cl)cc3)ccc2nc2n1CCCCC2`, the MDR1-MDCK efflux ratio worked out at 0.969 and the aqueous solubility turned out to be 0.38 µg/mL (≈ 1.07 µM).

With `Cc1nc(NCCN2C(=O)CCC2=O)c2c(C)csc2n1`, the MDR1-MDCK efflux ratio amounted to 6.04; the intrinsic clearance, human liver microsomes came to 8.08 mL/min/kg; the intrinsic clearance, rat liver microsomes turned out to be 158 mL/min/kg.

Turning to `COc1ccccc1C(=O)Nc1ccc2cc[nH]c2c1`, the MDR1-MDCK efflux ratio turned out to be 0.247; the fraction unbound, human plasma turned out to be 0.032; the fraction unbound, rat plasma came out at 0.0373; the intrinsic clearance, human liver microsomes stood at 84.8 mL/min/kg. Also, the intrinsic clearance, rat liver microsomes came to 491 mL/min/kg and the aqueous solubility is 4.9 µg/mL (≈ 18.4 µM).

Turning to `Cc1sc2ncnc(N3CCC(C(=O)Nc4ccccn4)CC3)c2c1C`, the aqueous solubility amounted to 1.85 µg/mL (≈ 5.03 µM).

In the case of `CCN1C(=O)CC[C@H](C(=O)N2CCc3cc(F)cc(C)c3C2)[C@H]1c1ccncc1`, the MDR1-MDCK efflux ratio turned out to be 51.4; the intrinsic clearance, human liver microsomes is 185 mL/min/kg; the intrinsic clearance, rat liver microsomes turned out to be 473 mL/min/kg; the aqueous solubility worked out at 70.2 µg/mL (≈ 178 µM).

On to `COc1ccccc1/C=C/CN1CCCC2(C1)OCCO2`, for which the MDR1-MDCK efflux ratio came out at 0.549; the intrinsic clearance, human liver microsomes was found to be 17.7 mL/min/kg; the intrinsic clearance, rat liver microsomes turned out to be 2180 mL/min/kg.

In the case of `CC(=O)Nc1ccc(C(=O)Nc2cc(-c3cccs3)ccc2N)cc1`, the intrinsic clearance, human liver microsomes came to 9.52 mL/min/kg and the intrinsic clearance, rat liver microsomes came to 65.2 mL/min/kg.

In the case of `Fc1c(CN2CCC(c3nnc4ccccn34)CC2)cccc1OC1CC1`, the MDR1-MDCK efflux ratio was 4.29; the intrinsic clearance, human liver microsomes was 15 mL/min/kg; the intrinsic clearance, rat liver microsomes came out at 120 mL/min/kg.

In turn, `c1ccc(C2(CNc3nc4ccccc4o3)CCOCC2)cc1` gave an intrinsic clearance, human liver microsomes of 129 mL/min/kg and an intrinsic clearance, rat liver microsomes of 3400 mL/min/kg.

`CCOc1ncccc1C(=O)Nc1sccc1C#N`: the aqueous solubility stood at 1.13 µg/mL (≈ 4.13 µM).

Take `Cc1ccc(-c2ccc(N(C)CCO)nn2)c(-n2cccn2)c1`: the MDR1-MDCK efflux ratio was determined as 29.3; the intrinsic clearance, human liver microsomes was no more than 4.74 mL/min/kg; the intrinsic clearance, rat liver microsomes was 79.8 mL/min/kg.

For the compound `COc1ccc(NC(=O)CN2CCC(c3cc(-c4cnc(N)nc4)cc(C)n3)CC2)cc1`, the MDR1-MDCK efflux ratio came to 5.08; the intrinsic clearance, human liver microsomes came out at 15.7 mL/min/kg; the intrinsic clearance, rat liver microsomes came to 245 mL/min/kg; the aqueous solubility was found to be 42.5 µg/mL (≈ 98.2 µM).

As to `COCCNC(=O)CN1CCN(c2nccn2-c2cccc(Cl)c2)CC1`, the MDR1-MDCK efflux ratio worked out at 52.5; the intrinsic clearance, human liver microsomes was 5.04 mL/min/kg; the intrinsic clearance, rat liver microsomes worked out at 353 mL/min/kg; the aqueous solubility came to 60.9 µg/mL (≈ 161 µM).

Take `Cn1c(-c2ccc(F)cc2)cnc1NC(=O)CCC(=O)N1CC(=O)Nc2ccccc21`: the MDR1-MDCK efflux ratio was 48.2; the intrinsic clearance, human liver microsomes stood at 40.5 mL/min/kg; the intrinsic clearance, rat liver microsomes came to 322 mL/min/kg; the aqueous solubility worked out at 61.3 µg/mL (≈ 145 µM).

On to `Cc1occc1C(=O)NCC(=O)Nc1nc2cc(Cl)ccc2n1C`, for which the MDR1-MDCK efflux ratio came to 1.31; the intrinsic clearance, human liver microsomes worked out at 9.49 mL/min/kg; the intrinsic clearance, rat liver microsomes was 195 mL/min/kg; the aqueous solubility was 27.2 µg/mL (≈ 78.4 µM).

Turning to `COc1cc(C#N)ccc1Cn1ccnc1C(C)C`, the MDR1-MDCK efflux ratio was 2.82; the intrinsic clearance, human liver microsomes came out at 17.3 mL/min/kg; the intrinsic clearance, rat liver microsomes is 166 mL/min/kg.

For the compound `COCC(C)(C)CNC(=O)C1(Cn2cccn2)CC1`, the intrinsic clearance, human liver microsomes came to 13 mL/min/kg and the intrinsic clearance, rat liver microsomes was determined as 188 mL/min/kg.

As to `CCn1nccc1CNc1ncccn1`, the MDR1-MDCK efflux ratio amounted to 0.592; the intrinsic clearance, human liver microsomes was no more than 4.74 mL/min/kg; the intrinsic clearance, rat liver microsomes was no more than 10.7 mL/min/kg.

Compound `O=C(COc1ccc2ccc(=O)oc2c1)Nc1cccc(COCc2ccco2)c1` registered an intrinsic clearance, human liver microsomes of 77.5 mL/min/kg; an intrinsic clearance, rat liver microsomes of 425 mL/min/kg; an aqueous solubility of 21.4 µg/mL (≈ 52.7 µM).

For the compound `Cn1cc(NC(=O)c2csc(Cc3ccccc3)n2)cn1`, the intrinsic clearance, human liver microsomes came out at 23.7 mL/min/kg; the intrinsic clearance, rat liver microsomes is 64.8 mL/min/kg; the aqueous solubility was found to be 34.5 µg/mL (≈ 116 µM).

As for `Cc1noc(COc2cccnc2C)n1`, the MDR1-MDCK efflux ratio was 0.706; the intrinsic clearance, human liver microsomes is no more than 4.74 mL/min/kg; the intrinsic clearance, rat liver microsomes stood at 23.6 mL/min/kg.

For `CCCc1nnc(N2CCC3(CCCC3)C2)s1`, the MDR1-MDCK efflux ratio was found to be 0.525; the intrinsic clearance, human liver microsomes was 86.7 mL/min/kg; the intrinsic clearance, rat liver microsomes stood at 2160 mL/min/kg.

`Cc1cc(F)ccc1C1C(=O)NCCN1C(=O)c1ccc2nccn2c1` (stereo unspecified): the MDR1-MDCK efflux ratio was 8.42; the fraction unbound, human plasma was 0.604; the fraction unbound, rat plasma is 0.893; the intrinsic clearance, human liver microsomes came to 6 mL/min/kg. The same compound displayed an intrinsic clearance, rat liver microsomes of 27.7 mL/min/kg and an aqueous solubility of 62.2 µg/mL (≈ 177 µM).

Regarding `Cc1ccc2oc([C@H]3CCN(Cc4cccs4)C3)nc2c1`, the MDR1-MDCK efflux ratio was 0.391; the intrinsic clearance, human liver microsomes turned out to be 127 mL/min/kg; the intrinsic clearance, rat liver microsomes was determined as 2000 mL/min/kg; the aqueous solubility worked out at 26.3 µg/mL (≈ 88.1 µM).

Consider `CCN1C(=O)C(C)(C)COc2cc(NS(=O)(=O)c3cc(C)c(C)cc3OC)ccc21`, for which the intrinsic clearance, human liver microsomes was determined as 445 mL/min/kg and the intrinsic clearance, rat liver microsomes was found to be 9320 mL/min/kg.

As for `O=C(O)c1ccc(CN2CC[C@H](c3nc4cc(Cl)ccc4o3)C2)cc1`, the MDR1-MDCK efflux ratio came to 1.11; the intrinsic clearance, human liver microsomes is no more than 4.74 mL/min/kg; the intrinsic clearance, rat liver microsomes worked out at 17.8 mL/min/kg; the aqueous solubility was found to be 32.4 µg/mL (≈ 90.8 µM).

As to `COCCOCc1ccc(-c2cc3onc(-c4ccccc4)c3c(=O)n2C)cc1`, the MDR1-MDCK efflux ratio stood at 0.466; the intrinsic clearance, human liver microsomes is 13.7 mL/min/kg; the intrinsic clearance, rat liver microsomes was found to be 135 mL/min/kg; the aqueous solubility stood at 14.2 µg/mL (≈ 36.5 µM).

On to `O=C(O)Cc1nc2ccccc2[nH]1`, for which the aqueous solubility stood at 10.1 µg/mL (≈ 57 µM).

`CC(C)(C)OC(=O)N1CCNC(=O)C1` showed an aqueous solubility of 34.3 µg/mL (≈ 171 µM).

In turn, `N#Cc1ccc(COc2ccccc2C#N)cc1` registered an aqueous solubility of 1.71 µg/mL (≈ 7.3 µM).

On to `CCNC(=O)N1CCC(c2nc(-c3ccccc3)no2)CC1`, for which the MDR1-MDCK efflux ratio came to 0.841; the intrinsic clearance, human liver microsomes was no more than 4.74 mL/min/kg; the intrinsic clearance, rat liver microsomes stood at 44.8 mL/min/kg; the aqueous solubility was found to be 52.8 µg/mL (≈ 176 µM).

On to `c1ccc(-c2noc(Cn3ccnc3)n2)nc1`, for which the MDR1-MDCK efflux ratio stood at 1.44; the intrinsic clearance, human liver microsomes was no more than 4.74 mL/min/kg; the intrinsic clearance, rat liver microsomes is no more than 10.7 mL/min/kg.

For the compound `N#Cc1ccnc(Nc2ccc(F)cc2)c1`, the MDR1-MDCK efflux ratio came to 0.609; the intrinsic clearance, human liver microsomes turned out to be 164 mL/min/kg; the intrinsic clearance, rat liver microsomes was determined as 185 mL/min/kg.

With `C=CC(=O)Nc1cccc(Oc2nc(Nc3ccc(N4CCN(C)CC4)cc3)nc3ccoc23)c1`, the MDR1-MDCK efflux ratio was 22; the fraction unbound, human plasma was 0.014; the fraction unbound, rat plasma was found to be 0.00619; the intrinsic clearance, human liver microsomes amounted to 16.2 mL/min/kg. The compound also returned an intrinsic clearance, rat liver microsomes of 329 mL/min/kg and an aqueous solubility of 28.6 µg/mL (≈ 60.8 µM).

Consider `CC(=O)Nc1ccc(C(=O)N2CCCCC2c2nc(N)ncc2-c2ccc(Cl)cc2)cc1` (stereo unspecified), for which the MDR1-MDCK efflux ratio was determined as 106; the fraction unbound, human plasma was determined as 0.0395; the fraction unbound, rat plasma worked out at 0.0355; the intrinsic clearance, human liver microsomes amounted to 40.7 mL/min/kg. For the same compound, the intrinsic clearance, rat liver microsomes was 643 mL/min/kg and the aqueous solubility was 57.8 µg/mL (≈ 128 µM).

Compound `CC(c1ccccc1)N1CC(C(=O)N2CCC(n3c(=O)[nH]c4ccccc43)CC2)CC1=O` (stereo unspecified) showed an intrinsic clearance, human liver microsomes of 32.1 mL/min/kg; an intrinsic clearance, rat liver microsomes of 454 mL/min/kg; an aqueous solubility of 71.7 µg/mL (≈ 166 µM).

In turn, `COc1cc(Nc2c(C#N)cnc3cc(OC)c(OC)cc23)c(Cl)cc1Cl` registered an intrinsic clearance, human liver microsomes of 161 mL/min/kg and an intrinsic clearance, rat liver microsomes of 443 mL/min/kg.

For `O=C(c1ccc(F)cc1)N1Cc2nc[nH]c2C[C@H]1c1nc(-c2ccc(Cl)cc2)no1`, the intrinsic clearance, human liver microsomes was 21.3 mL/min/kg; the intrinsic clearance, rat liver microsomes amounted to 133 mL/min/kg; the aqueous solubility worked out at 20.2 µg/mL (≈ 47.7 µM).

In the case of `Cc1cc(NC(=O)c2ccc(Cl)cc2F)no1`, the aqueous solubility is 7 µg/mL (≈ 27.5 µM).

`Cc1noc(C)c1CCC(=O)Nc1cccnc1`: the MDR1-MDCK efflux ratio was found to be 7.24; the intrinsic clearance, human liver microsomes is no more than 4.74 mL/min/kg; the intrinsic clearance, rat liver microsomes amounted to 32.1 mL/min/kg; the aqueous solubility amounted to 55.7 µg/mL (≈ 227 µM).

For `Cc1ccc(=O)n(CC2(O)CCN(Cc3cccs3)CC2)n1`, the MDR1-MDCK efflux ratio was 4.22; the intrinsic clearance, human liver microsomes is no more than 4.74 mL/min/kg; the intrinsic clearance, rat liver microsomes is 161 mL/min/kg.

For the compound `CC1(C)Cc2cc(CN3CCC4(CC3)NC(=O)N(Cc3ccccc3)C4=O)ccc2O1`, the MDR1-MDCK efflux ratio stood at 7.73; the intrinsic clearance, human liver microsomes was 55.8 mL/min/kg; the intrinsic clearance, rat liver microsomes was determined as 294 mL/min/kg; the aqueous solubility is 36.4 µg/mL (≈ 86.6 µM).

On to `Cc1oc(C)c(C(=O)N2CCNC(=O)C2)c1Br`, for which the MDR1-MDCK efflux ratio is 5.92; the intrinsic clearance, human liver microsomes is no more than 4.74 mL/min/kg; the intrinsic clearance, rat liver microsomes is no more than 10.7 mL/min/kg; the aqueous solubility stood at 72.2 µg/mL (≈ 240 µM).

As to `CCc1csc(NC(=O)c2ccc3c(c2)nc(C)n3C)n1`, the intrinsic clearance, human liver microsomes came out at 33.9 mL/min/kg; the intrinsic clearance, rat liver microsomes is 108 mL/min/kg; the aqueous solubility is 39.8 µg/mL (≈ 132 µM).

As to `O=C(Nc1nc2ccccc2[nH]1)c1ccccc1`, the aqueous solubility stood at 1.65 µg/mL (≈ 6.95 µM).

Compound `Nc1cnn(CC(=O)N2CCCCC2)c1` came in with an intrinsic clearance, human liver microsomes of no more than 4.74 mL/min/kg; an intrinsic clearance, rat liver microsomes of no more than 10.7 mL/min/kg; an aqueous solubility of 36.4 µg/mL (≈ 175 µM).

For the compound `Cc1cncc(C2CCN(Cc3cnccn3)CC2)n1`, the MDR1-MDCK efflux ratio was 0.65; the intrinsic clearance, human liver microsomes is no more than 4.74 mL/min/kg; the intrinsic clearance, rat liver microsomes is 60.6 mL/min/kg; the aqueous solubility was 67.8 µg/mL (≈ 252 µM).

These data come from the Biogen ADME set (Fang et al. 2023).
